Measurements reported in PMC12954580, “Multivalent glycoligands with lectin/enzyme dual specificity: self-deliverable glycosidase regulators” (Chemical Communications (Cambridge, England), 2019).

Experiments:
[1] = target: T1, concanavalin A (ConA) (Canavalia ensiformis, UniProt P02866); assay: Enzyme-linked lectin assay (ELLA), HRP-ConA/mannan binding inhibition; set-up: species or system Concanavalia einsiformis; settings: Figure S19A, values printed over bars, axis log [IC50, M]
T1 construct: purchased
Experimental: The absorbance of the resulting mixture was determined at 405 nm.

[2] = target: T2, recombinant human MMR (macrophage mannose receptor) (Homo sapiens, UniProt P22897); assay: Modified ELLA: inhibition of rhMMR binding to yeast mannan; settings: mean of three independent experiments ± SD
T2 sequence (P22897 19-1456): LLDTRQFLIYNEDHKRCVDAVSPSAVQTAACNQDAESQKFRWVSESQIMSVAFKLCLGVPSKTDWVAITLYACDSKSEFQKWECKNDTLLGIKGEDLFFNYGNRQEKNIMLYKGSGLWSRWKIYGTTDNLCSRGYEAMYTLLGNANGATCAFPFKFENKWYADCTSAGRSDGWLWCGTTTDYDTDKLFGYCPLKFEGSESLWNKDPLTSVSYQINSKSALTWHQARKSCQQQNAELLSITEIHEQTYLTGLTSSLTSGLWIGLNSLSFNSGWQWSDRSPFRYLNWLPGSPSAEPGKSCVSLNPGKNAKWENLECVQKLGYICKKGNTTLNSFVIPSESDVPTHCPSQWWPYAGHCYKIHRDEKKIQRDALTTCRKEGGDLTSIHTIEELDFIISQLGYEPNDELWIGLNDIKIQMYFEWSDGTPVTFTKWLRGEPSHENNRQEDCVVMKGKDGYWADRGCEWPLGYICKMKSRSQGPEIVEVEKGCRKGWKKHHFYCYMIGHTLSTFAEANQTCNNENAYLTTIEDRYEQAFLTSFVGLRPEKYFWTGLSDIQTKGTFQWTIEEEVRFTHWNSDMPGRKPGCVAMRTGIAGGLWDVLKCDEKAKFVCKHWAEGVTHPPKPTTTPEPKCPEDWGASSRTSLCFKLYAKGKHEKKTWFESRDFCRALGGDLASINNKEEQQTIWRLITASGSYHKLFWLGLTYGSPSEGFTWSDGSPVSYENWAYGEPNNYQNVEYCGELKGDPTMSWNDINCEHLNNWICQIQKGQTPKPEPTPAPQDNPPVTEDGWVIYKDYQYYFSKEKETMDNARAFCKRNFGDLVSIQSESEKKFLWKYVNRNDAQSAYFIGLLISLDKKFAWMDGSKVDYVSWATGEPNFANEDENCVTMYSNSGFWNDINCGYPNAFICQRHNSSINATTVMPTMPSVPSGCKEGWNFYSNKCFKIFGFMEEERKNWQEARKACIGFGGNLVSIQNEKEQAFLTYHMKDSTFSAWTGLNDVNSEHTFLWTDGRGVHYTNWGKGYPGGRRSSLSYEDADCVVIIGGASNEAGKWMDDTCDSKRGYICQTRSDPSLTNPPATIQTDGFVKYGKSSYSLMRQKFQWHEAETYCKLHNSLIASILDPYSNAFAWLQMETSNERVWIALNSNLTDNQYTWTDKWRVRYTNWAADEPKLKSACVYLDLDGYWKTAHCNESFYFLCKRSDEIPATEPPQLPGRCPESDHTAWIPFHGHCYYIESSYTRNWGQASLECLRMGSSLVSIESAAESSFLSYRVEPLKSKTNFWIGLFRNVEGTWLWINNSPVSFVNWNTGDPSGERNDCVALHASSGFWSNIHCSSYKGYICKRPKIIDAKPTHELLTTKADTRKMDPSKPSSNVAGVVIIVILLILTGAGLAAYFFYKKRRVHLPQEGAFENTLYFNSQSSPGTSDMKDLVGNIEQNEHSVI
Experimental: conjugates 3-8 the above protocol was repeated using in the last incubation step a solution of the desired HRP-ConA lectin concentration (50 µL per well) that contained inhibitors targeting the glycone, glycone/aglycone and surface sites (9-13; 500 µM; Figure S21B). Control […]
in the absence of the enzyme.
Determination of recombinant human MMR (rhMMR) binding affinities . The wells of mannan-coated microplates, prepared as above described, were filled with 100 μL of serial dilutions of rhMMR from a 10 µg·mL-1 stock solution in PBS (pH 7.3 containing 0.1 mM Ca2+ and 0.1 mM Mn2+), and incubated at 37 °C for 1 h. The plates were washed three times with PBST as described above and 100 µL of a solution of biotinylated anti -human MMR antibody (0.2 µg·mL_1, R&D Systems) in PBS was added in each well, and the plates were further incubated for 1 h at 37 °C.
The complex NeutrAvidin-biotinylated HRP was preformed separately by successively adding to Tris buffer (9.6 mL, 50 mM, pH 7.6) a solution of NeutrAvidin (100 µg·mL-1 in Tris buffer, 1.2 mL, Thermo Scientific) and a solution of biotin-conjugated HRP (25 µg·mL-1 in Tris buffer, 1.2 mL, Thermo Scientific). […] After 5 min at RT, the optical density was measured at 415 nm. […]
inhibition experiments. […] Optical density at 415 nm was determined after 5 min. The percent of inhibition was calculated as above indicated for a typical ELLA experiment.

[3] = target: T3, α-mannosidase (jack beans) (Canavalia ensiformis, UniProt C0HJB3); assay: Enzymatic stability / substrate behaviour towards glycosidases (gas chromatography); format: biochemical; settings: control experiment
T3 construct: purchased; host or cells: jack beans
T3 sequence (C0HJB3 1-981): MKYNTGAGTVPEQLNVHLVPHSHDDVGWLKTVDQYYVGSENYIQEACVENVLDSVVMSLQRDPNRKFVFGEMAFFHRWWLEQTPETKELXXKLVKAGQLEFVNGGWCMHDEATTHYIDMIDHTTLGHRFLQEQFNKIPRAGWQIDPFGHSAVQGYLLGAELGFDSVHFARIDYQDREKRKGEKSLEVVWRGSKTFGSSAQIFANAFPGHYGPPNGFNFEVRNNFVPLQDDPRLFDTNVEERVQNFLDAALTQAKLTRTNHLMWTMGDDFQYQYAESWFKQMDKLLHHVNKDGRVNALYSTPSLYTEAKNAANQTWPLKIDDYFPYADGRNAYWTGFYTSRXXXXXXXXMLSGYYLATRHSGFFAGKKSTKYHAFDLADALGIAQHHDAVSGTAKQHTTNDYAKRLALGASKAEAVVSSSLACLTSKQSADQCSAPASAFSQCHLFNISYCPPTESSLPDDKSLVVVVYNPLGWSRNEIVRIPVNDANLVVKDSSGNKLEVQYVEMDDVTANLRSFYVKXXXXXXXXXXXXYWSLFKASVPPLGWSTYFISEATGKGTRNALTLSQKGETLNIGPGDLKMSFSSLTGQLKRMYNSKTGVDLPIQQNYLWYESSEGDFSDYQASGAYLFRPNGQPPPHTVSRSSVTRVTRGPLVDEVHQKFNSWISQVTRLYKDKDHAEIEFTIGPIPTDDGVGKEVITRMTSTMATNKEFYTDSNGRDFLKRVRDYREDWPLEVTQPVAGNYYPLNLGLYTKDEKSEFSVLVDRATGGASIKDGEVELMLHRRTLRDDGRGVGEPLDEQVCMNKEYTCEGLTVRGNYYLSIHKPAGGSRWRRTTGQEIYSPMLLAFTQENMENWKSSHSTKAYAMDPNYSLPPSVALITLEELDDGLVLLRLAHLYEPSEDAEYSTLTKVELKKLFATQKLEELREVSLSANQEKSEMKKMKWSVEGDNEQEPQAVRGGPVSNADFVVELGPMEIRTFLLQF
Description: Preliminary evidence on the feasibility of achieving disparate glycosidase inhibition selectivity with the multivalent glycoclusters 3–8 and, at the same time, retaining intrinsic lectin binding properties was achieved by conducting control experiments using both commercial glycosidases and lectins. The glycosidase panel included α- and β-glucosidases (S. cerevisiae and bovine liver), α- and β-galactosidases (green coffee beans and E. coli) and α- and β-mannosidases (jack beans and H. pomatia). Prior to kinetic determination of the corresponding inhibition constant (Ki) values (Table S1 and Fig. S9–S18, ESI ^†), the enzymatic stability was investigated by gas chromatography. […] In all the other cases the α-mannopyranoside linkages remained stable, meaning that any effect observed in the enzyme activity should be ascribed to an inhibitor and not to a substrate behavior.

Compound | IC50 [1] [µM] | IC50 [2] [µM] | Substrate behaviour towards GH38 jack bean Manase [3]
CO[C@H]1O[C@H](CO)[C@@H](O)[C@H](O)[C@@H]1O [MeMan, methyl α-D-mannopyranoside] | 800 | – | –
Man9 | – | 3.9 ± 0.5 | substrates
